Counter-ions that a name gives are not always drawn. Like-named read-outs stand apart in the source and are kept apart here.
Tests used:
in vitro = conditions: human; for CC50: CC50 (50% cell cytotoxicity concentration)
rLUJV/ZsG = test: microbe, parasite or virus in culture; type: cell-based, Lujo virus
[1] = Mammarenavirus lujoense, Huh-7, 50 nM, read-out: Relative ZsG (%) Mean
[2] = Mammarenavirus lujoense, Huh-7, 500 nM, read-out: Relative ZsG (%) Mean
[3] = Mammarenavirus lujoense, Huh-7, 5000 nM, read-out: Relative ZsG (%) Mean
[4] = Mammarenavirus lujoense, Huh-7, read-out: Relative ZsG (%) Mean

Structure (SMILES)	viability at 0.05 µM (in vitro)	viability at 0.5 µM (in vitro)	viability at 5 µM (in vitro)	activity at 0.05 µM (rLUJV/ZsG; [1])	activity at 0.5 µM (rLUJV/ZsG; [2])	activity at 5 µM (rLUJV/ZsG; [3])	CC50 (in vitro)	EC50 (rLUJV/ZsG; Mammarenavirus lujoense, Huh-7, read-out: EC50 (concentration inhibiting ZsG expression by 50%))	EC50 (rLUJV/ZsG; read-out: EC50 (concentration inhibiting ZsG expression by 50%))	activity at 0.05 µM (rLUJV/ZsG; [4])	activity at 0.5 µM (rLUJV/ZsG; [4])	activity at 5 µM (rLUJV/ZsG; [4])
Nc1nc(Cl)nc2c1ncn2[C@@H]1O[C@H](CO)[C@@H](O)[C@H]1O [2-chloroadenosine]	98%	105%	103%	124%	133%	99%	–	–	–	–	–	–
C[C@@]1(O)[C@H](O)[C@@H](CO)O[C@H]1n1ccc(N)nc1=O [2ʹ-C-methylcytidine]	102%	104%	99%	124%	144%	103%	–	–	–	–	–	–
C[C@@]1(O)[C@H](O)[C@@H](CO)O[C@H]1n1ccc(=O)[nH]c1=O [2ʹ-C-methyluridine]	102%	100%	97%	132%	142%	126%	–	–	–	–	–	–
CO[C@@H]1[C@H](O)[C@@H](CO)O[C@H]1n1ccc(N)nc1=O [2ʹ-O-methylcytidine]	98%	103%	100%	118%	127%	114%	–	–	–	–	–	–
CO[C@@H]1[C@H](O)[C@@H](CO)O[C@H]1n1ccc(=O)[nH]c1=O [2ʹ-O-methyluridine]	97%	100%	96%	122%	130%	110%	–	–	–	–	–	–
O=C1C=CN([C@@H]2O[C@H](CO)[C@@H](O)[C@H]2O)C(=O)C1 [3-deazauridine]	103%	96%	99%	108%	105%	111%	–	–	–	–	–	–
Nc1ncn([C@@H]2O[C@H](CO)[C@@H](O)[C@H]2O)c(=O)n1 [5-azacytidine]	96%	102%	102%	90%	112%	104%	–	–	–	–	–	–
[N-]=[N+]=Nc1cn([C@@H]2O[C@H](CO)[C@@H](O)[C@H]2O)c(=O)[nH]c1=O [5-azidouridine]	104%	100%	104%	121%	119%	113%	–	–	–	–	–	–
O=c1[nH]c(=O)n([C@@H]2O[C@H](CO)[C@@H](O)[C@H]2O)cc1Br [5-bromouridine]	97%	102%	100%	134%	131%	106%	–	–	–	–	–	–
O=c1[nH]c(=O)n([C@@H]2O[C@H](CO)[C@@H](O)[C@H]2O)cc1Cl [5-chlorouridine]	100%	103%	99%	122%	142%	103%	–	–	–	–	–	–
O=c1[nH]c(=O)n([C@@H]2O[C@H](CO)[C@@H](O)[C@H]2O)cc1F [5-fluorouridine]	97%	100%	103%	94%	51%	19%	–	–	–	–	–	–
Cc1cn([C@@H]2O[C@H](CO)[C@@H](O)[C@H]2O)c(=O)nc1N [5-methylcytidine]	96%	97%	98%	122%	129%	108%	–	–	–	–	–	–
O=c1cnn([C@@H]2O[C@H](CO)[C@@H](O)[C@H]2O)c(=S)[nH]1 [6-aza-2-thiouridine]	104%	96%	103%	134%	139%	112%	–	–	–	–	–	–
O=c1cnn([C@@H]2O[C@H](CO)[C@@H](O)[C@H]2O)c(=O)[nH]1 [6-azauridine]	98%	103%	97%	95%	87%	78%	–	–	–	–	–	–
Nc1ncnc2c1nnn2[C@@H]1O[C@H](CO)[C@@H](O)[C@H]1O [8-azaadenosine]	98%	103%	47%	118%	121%	6%	–	–	–	–	–	–
[N-]=[N+]=Nc1nc2c(N)ncnc2n1[C@@H]1O[C@H](CO)[C@@H](O)[C@H]1O [8-azidoadenosine]	104%	87%	32%	90%	72%	6%	–	–	–	–	–	–
COc1c(-c2ccc3cc(NS(C)(=O)=O)ccc3c2)cc(-n2ccc(=O)[nH]c2=O)cc1C(C)(C)C [ABT-333]	99%	96%	104%	131%	111%	129%	–	–	–	–	–	–

Structure (SMILES)	viability at 0.05 µM (in vitro)	viability at 0.5 µM (in vitro)	viability at 5 µM (in vitro)	activity at 0.05 µM (rLUJV/ZsG; [1])	activity at 0.5 µM (rLUJV/ZsG; [2])	activity at 5 µM (rLUJV/ZsG; [3])	CC50 (in vitro)	EC50 (rLUJV/ZsG; Mammarenavirus lujoense, Huh-7, read-out: EC50 (concentration inhibiting ZsG expression by 50%))	EC50 (rLUJV/ZsG; read-out: EC50 (concentration inhibiting ZsG expression by 50%))	activity at 0.05 µM (rLUJV/ZsG; [4])	activity at 0.5 µM (rLUJV/ZsG; [4])	activity at 5 µM (rLUJV/ZsG; [4])
COc1ccc(-c2ccc3c(N4CCOC[C@@H]4C)nc(N4CCOC[C@@H]4C)nc3n2)cc1CO [AZD8055]	86%	52%	45%	48%	7%	3%	–	–	–	–	–	–
CC(C)(C)C(=O)OCOP(=O)(COCCn1cnc2c(N)ncnc21)OCOC(=O)C(C)(C)C [Adefovir dipivoxil]	123%	94%	54%	70%	38%	24%	–	–	–	–	–	–
CCCCc1oc2ccccc2c1C(=O)c1cc(I)c(OCCN(CC)CC)c(I)c1 [Amiodarone]	–	–	–	80%	60%	3%	13.6 ± 1.51 µM	–	–	–	–	–
N#CC1(c2ccc(NC(=O)c3cccnc3NCc3ccncc3)cc2)CCCC1 [Apatinib]	113%	119%	95%	91%	67%	47%	–	–	–	–	–	–
CCOC(=O)c1c(CSc2ccccc2)n(C)c2cc(Br)c(O)c(CN(C)C)c12 [Arbidol]	135%	139%	109%	77%	65%	40%	–	–	–	–	–	–
O=C1CCc2ccc(OCCCCN3CCN(c4cccc(Cl)c4Cl)CC3)cc2N1 [Aripiprazole]	124%	126%	59%	71%	81%	16%	–	–	–	–	–	–
O=C1C(O)=C([C@H]2CC[C@H](c3ccc(Cl)cc3)CC2)C(=O)c2ccccc21 [Atovaquone]	129%	134%	115%	108%	90%	74%	–	–	–	–	–	–
Nc1ncnc2c([C@@H]3N[C@H](CO)[C@@H](O)[C@H]3O)c[nH]c12 [BCX-4430]	99%	97%	101%	103%	132%	99%	–	–	–	–	–	–
CC(C)C(=O)OC[C@@]1(N=[N+]=[N-])O[C@@H](n2ccc(N)nc2=O)[C@H](OC(=O)C(C)C)[C@@H]1OC(=O)C(C)C [Balapiravir (R1626), Balapiravir]	104%	104%	99%	139%	81%	122%	–	–	–	–	–	–
COC(=O)C1=C(C)NC(C)=C(C(=O)OC2CCCN(Cc3ccccc3)C2)C1c1cccc([N+](=O)[O-])c1 (stereo not shown) [Benidipine]	126%	129%	107%	90%	81%	61%	–	–	–	–	–	–
CN1[C@@H]2CC[C@H]1C[C@@H](OC(c1ccccc1)c1ccccc1)C2 [Benztropine mesylate]	126%	130%	108%	110%	90%	36%	> 25 µM	5.14 ± 1.52 µM	5.14 ± 1.52 µM	–	–	–
CN1CCC[C@@H]1CCO[C@](C)(c1ccccc1)c1ccc(Cl)cc1 [Clemastine fumarate]	115%	116%	107%	95%	81%	6%	–	–	–	–	–	–
CC(C)/N=c1\cc2n(-c3ccc(Cl)cc3)c3ccccc3nc-2cc1Nc1ccc(Cl)cc1 [Clofazimine]	120%	125%	102%	88%	75%	52%	–	–	–	–	–	–
CN(C)CCCN1c2ccccc2CCc2ccc(Cl)cc21 [Clomipramine HCL]	97%	97%	98%	129%	103%	12%	–	–	–	–	–	–
CC(C)(C)c1nc(-c2cccc(NS(=O)(=O)c3c(F)cccc3F)c2F)c(-c2ccnc(N)n2)s1 [Dabrafenib]	119%	117%	68%	87%	79%	22%	–	–	–	–	–	–
CNCC[C@H](Oc1cccc2ccccc12)c1cccs1 [Duloxetine HCL]	104%	109%	76%	–	–	–	–	–	–	103%	74%	4%
C#Cc1cccc(Nc2ncnc3cc(OCCOC)c(OCCOC)cc23)c1 [Erlotinib]	127%	126%	110%	82%	66%	65%	–	–	–	–	–	–

— paper PMC8310135 (Viruses, 2021)
